From patent publication US6335443B1, “Chemical synthesis of exochelins” (Keystone Biomedical, Inc., priority 1998, dated 2002)

Biological target: holo-transferrin (92% iron-saturated human transferrin) (Homo sapiens, UniProt P02787)
Test: Capacity to remove iron from holo-transferrin (92% iron-saturated human transferrin)
Type: biochemical
Conditions: Fe3+:desferri-Exochelin 10:1
Protocol: A. 40% Iron-Saturated Human Transferrin. To assess the capacity of the 3 different desferri-Exochelins to remove iron from 40% iron-saturated human transferrin, each of them was incubated for 1, 3, and 24 hours with 40% iron-saturated transferrin such that the ratio of Fe^3+: desferri-Exochelin equaled 10:1. The incubation was carried out in PBS, pH 7.4. Afterwards, the Exochelin and transferrin were separated from each other by centrifugation through a 10,000 dalton cut-off filter. The transferrin (mass 76,000 daltons) was completely excluded by this filter whereas 85% of the Exochelin (mass<1,000) was recovered in the filtrate. To determine the total amount of exochelin recovered, the exochelin in the filtrate was saturated with a 20:1 molar excess of ferric ammonium citrate and subjected to reverse-phase HPLC as described above. To determine the amount of iron-saturated Exochelin in the filtrate at each time point, the filtrate was subjected to reverse-phase HPLC without the addition of iron. The % iron-saturation was calculated as follows: [formula]
B. Holo-Transferrin (92% Iron-Saturated Human Transferrin). To assess the capacity of the 3 different desferri-Exochelins to remove iron from holo-transferrin (92% iron-saturated human transferring, each of them was incubated for 1, 3, and 24 h with 92% iron-saturated transferrin such that the ratio of Fe^3+: desferri-Exochelin equaled 10:1, as in the aforementioned study with 40% iron-saturated transferrin. The % iron-saturation of the Exochelins was assayed as above.

[1] = listed as Synthetic Desferri-Exochelin 7728M(R)
[2] = listed as Synthetic Desferri-Exochelin 772SM(S)

Chain of holo-transferrin (92% iron-saturated human transferrin) (P02787 20-698): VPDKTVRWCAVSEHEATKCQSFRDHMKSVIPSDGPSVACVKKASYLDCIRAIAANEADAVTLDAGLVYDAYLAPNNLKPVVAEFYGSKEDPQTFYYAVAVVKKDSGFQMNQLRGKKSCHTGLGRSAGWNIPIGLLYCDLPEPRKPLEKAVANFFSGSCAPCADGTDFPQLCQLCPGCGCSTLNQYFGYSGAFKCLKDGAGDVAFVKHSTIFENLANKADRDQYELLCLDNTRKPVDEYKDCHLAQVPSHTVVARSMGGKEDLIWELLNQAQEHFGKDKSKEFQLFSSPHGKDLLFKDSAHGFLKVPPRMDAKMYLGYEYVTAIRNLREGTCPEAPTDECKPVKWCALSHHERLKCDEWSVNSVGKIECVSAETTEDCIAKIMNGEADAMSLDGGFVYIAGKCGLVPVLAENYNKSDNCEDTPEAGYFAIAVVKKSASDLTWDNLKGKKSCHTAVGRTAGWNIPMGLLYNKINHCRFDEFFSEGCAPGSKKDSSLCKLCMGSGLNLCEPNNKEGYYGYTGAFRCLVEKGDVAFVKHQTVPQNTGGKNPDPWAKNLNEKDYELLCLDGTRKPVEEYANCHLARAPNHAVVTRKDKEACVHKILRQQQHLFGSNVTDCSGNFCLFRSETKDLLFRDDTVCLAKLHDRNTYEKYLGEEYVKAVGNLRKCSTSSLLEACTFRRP

Iron-Saturation 0 h [1] [%] | Iron-Saturation 1 h [1] [%] | Iron-Saturation 3 h [1] [%] | Iron-Saturation 24 h [1] [%] | Iron-Saturation 24 h (listed as synthetic desferri-exochelin 772SM(R)) [%] | Iron-Saturation 0 h [2] [%] | Iron-Saturation 1 h [2] [%] | Iron-Saturation 3 h [2] [%] | Iron-Saturation 24 h [2] [%] | Iron-Saturation 24 h (listed as synthetic desferri-exochelin 772SM(S)) [%] | Compound
1.1 | 13.6 | 31.5 | 60.0 | 60.0 |  |  |  |  |  | COC(=O)CCCCCC(=O)N(O)CCCCC(NC(=O)C1COC(c2ccccc2O)=N1)C(=O)OC(C)CC(=O)NC1CCCCN(O)C1=O [Synthetic 772SM(R), Exochelin 772SM(R)]
 |  |  |  |  | 1.0 | 18.1 | 15.5 | 47.2 | 47.2 | COC(=O)CCCCCC(=O)N(O)CCCCC(NC(=O)C1COC(c2ccccc2O)=N1)C(=O)OC(C)CC(=O)NC1CCCCN(O)C1=O [Synthetic 772SM(S), Exochelin 772SM(S)]
